{
  "source": "ChEMBL document CHEMBL1201862",
  "about": "“PubChem BioAssay data set” (2004)",
  "assay_in_all_cases": "DTP human tumour cell line panel, 48 h",
  "key": {"786-0": {"tested_on": "786-0"}, "A498": {"tested_on": "A498"}, "A549": {"tested_on": "A549"}, "ACHN": {"tested_on": "ACHN"}, "COLO 205": {"tested_on": "COLO 205"}, "DU-145": {"tested_on": "DU-145"}, "EKVX": {"tested_on": "EKVX"}, "HCC 2998": {"tested_on": "HCC 2998"}, "HCT-116": {"tested_on": "HCT-116"}, "HCT-15": {"tested_on": "HCT-15"}, "HL-60": {"tested_on": "HL-60"}, "HOP-62": {"tested_on": "HOP-62"}, "HOP-92": {"tested_on": "HOP-92"}, "HT-29": {"tested_on": "HT-29"}, "Hs-578T": {"tested_on": "Hs-578T"}, "IGROV-1": {"tested_on": "IGROV-1"}, "K562": {"tested_on": "K562"}, "KM12": {"tested_on": "KM12"}, "M14": {"tested_on": "M14"}, "MCF7": {"tested_on": "MCF7"}, "MDA-MB-231": {"tested_on": "MDA-MB-231"}, "MOLT-4": {"tested_on": "MOLT-4"}, "Malme-3M": {"tested_on": "Malme-3M"}, "NCI-H226": {"tested_on": "NCI-H226"}, "NCI-H23": {"tested_on": "NCI-H23"}, "NCI-H460": {"tested_on": "NCI-H460"}, "NCI-H522": {"tested_on": "NCI-H522"}, "NCI/ADR-RES": {"tested_on": "NCI/ADR-RES"}, "OVCAR-4": {"tested_on": "OVCAR-4"}, "OVCAR-5": {"tested_on": "OVCAR-5"}, "OVCAR-8": {"tested_on": "OVCAR-8"}, "PC-3": {"tested_on": "PC-3"}, "RPMI-8226": {"tested_on": "RPMI-8226"}, "RXF 393": {"tested_on": "RXF 393"}, "SF-268": {"tested_on": "SF-268"}, "SF-539": {"tested_on": "SF-539"}, "SK-MEL-28": {"tested_on": "SK-MEL-28"}, "SK-MEL-2": {"tested_on": "SK-MEL-2"}, "SK-MEL-5": {"tested_on": "SK-MEL-5"}, "SK-OV-3": {"tested_on": "SK-OV-3"}, "SN12C": {"tested_on": "SN12C"}, "SNB-19": {"tested_on": "SNB-19"}, "SNB-75": {"tested_on": "SNB-75"}, "SR": {"tested_on": "SR"}, "SW-620": {"tested_on": "SW-620"}, "T47D": {"tested_on": "T47D"}, "TK-10": {"tested_on": "TK-10"}, "U-251": {"tested_on": "U-251"}, "UACC-257": {"tested_on": "UACC-257"}, "UACC-62": {"tested_on": "UACC-62"}, "UO-31": {"tested_on": "UO-31"}},
  "note": "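In this assay, cells in 96-well plates receive the compound at five concentrations for 48 hours. Endpoints are linearly interpolated between the surrounding concentrations. Abbreviation: GI50, concentration required for 50% inhibition of growth.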 Active and inactive are the calls of the source. No stated cut-off is given here; in the data, active = GI50 up to about 1.1 µM and inactive = higher.",
  "data": [
    {"smiles": "O=C(CSCC(=O)N/N=C/c1ccc(F)cc1)N/N=C/c1ccc(F)cc1", "values": [
      {"measurement": "GI50", "setting": "786-0", "value": "> 100 µM (inactive)"},
      {"measurement": "GI50", "setting": "A498", "value": "38.2 µM (inactive)"},
      {"measurement": "GI50", "setting": "A549", "value": "54.8 µM (inactive)"},
      {"measurement": "GI50", "setting": "ACHN", "value": "> 100 µM (inactive)"},
      {"measurement": "GI50", "setting": "COLO 205", "value": "> 100 µM (inactive)"},
      {"measurement": "GI50", "setting": "DU-145", "value": "> 100 µM (inactive)"},
      {"measurement": "GI50", "setting": "EKVX", "value": "> 100 µM (inactive)"},
      {"measurement": "GI50", "setting": "HCC 2998", "value": "66.8 µM (inactive)"},
      {"measurement": "GI50", "setting": "HCT-116", "value": "> 100 µM (inactive)"},
      {"measurement": "GI50", "setting": "HCT-15", "value": "> 100", "unit": "µM"},
      {"measurement": "GI50", "setting": "HL-60", "value": "> 100 µM (inactive)"},
      {"measurement": "GI50", "setting": "HOP-62", "value": "> 100 µM (inactive)"},
      {"measurement": "GI50", "setting": "HOP-92", "value": "> 100 µM (inactive)"},
      {"measurement": "GI50", "setting": "HT-29", "value": "> 100 µM (inactive)"},
      {"measurement": "GI50", "setting": "Hs-578T", "value": "> 100 µM (inactive)"},
      {"measurement": "GI50", "setting": "IGROV-1", "value": "> 100 µM (inactive)"},
      {"measurement": "GI50", "setting": "K562", "value": "57.1 µM (inactive)"},
      {"measurement": "GI50", "setting": "KM12", "value": "> 100 µM (inactive)"},
      {"measurement": "GI50", "setting": "M14", "value": "76.6 µM (inactive)"},
      {"measurement": "GI50", "setting": "MCF7", "value": "46.6 µM (inactive)"},
      {"measurement": "GI50", "setting": "MDA-MB-231", "value": "> 100 µM (inactive)"},
      {"measurement": "GI50", "setting": "MOLT-4", "value": "25.2 µM (inactive)"},
      {"measurement": "GI50", "setting": "Malme-3M", "value": "> 100 µM (inactive)"},
      {"measurement": "GI50", "setting": "NCI-H226", "value": "> 100 µM (inactive)"},
      {"measurement": "GI50", "setting": "NCI-H23", "value": "> 100 µM (inactive)"},
      {"measurement": "GI50", "setting": "NCI-H460", "value": "> 100 µM (inactive)"},
      {"measurement": "GI50", "setting": "NCI-H522", "value": "65.9 µM (inactive)"},
      {"measurement": "GI50", "setting": "NCI/ADR-RES", "value": "> 100 µM (inactive)"},
      {"measurement": "GI50", "setting": "OVCAR-4", "value": "> 100 µM (inactive)"},
      {"measurement": "GI50", "setting": "OVCAR-5", "value": "> 100 µM (inactive)"},
      {"measurement": "GI50", "setting": "OVCAR-8", "value": "> 100 µM (inactive)"},
      {"measurement": "GI50", "setting": "PC-3", "value": "66.2 µM (inactive)"},
      {"measurement": "GI50", "setting": "RPMI-8226", "value": "60.8 µM (inactive)"},
      {"measurement": "GI50", "setting": "RXF 393", "value": "85.1 µM (inactive)"},
      {"measurement": "GI50", "setting": "SF-268", "value": "> 100 µM (inactive)"},
      {"measurement": "GI50", "setting": "SF-539", "value": "> 100 µM (inactive)"},
      {"measurement": "GI50", "setting": "SK-MEL-28", "value": "> 100 µM (inactive)"},
      {"measurement": "GI50", "setting": "SK-MEL-2", "value": "> 100 µM (inactive)"},
      {"measurement": "GI50", "setting": "SK-MEL-5", "value": "> 100 µM (inactive)"},
      {"measurement": "GI50", "setting": "SK-OV-3", "value": "> 100 µM (inactive)"},
      {"measurement": "GI50", "setting": "SN12C", "value": "> 100 µM (inactive)"},
      {"measurement": "GI50", "setting": "SNB-19", "value": "> 100 µM (inactive)"},
      {"measurement": "GI50", "setting": "SNB-75", "value": "> 100 µM (inactive)"},
      {"measurement": "GI50", "setting": "SR", "value": "> 100 µM (inactive)"},
      {"measurement": "GI50", "setting": "SW-620", "value": "> 100 µM (inactive)"},
      {"measurement": "GI50", "setting": "T47D", "value": "> 100 µM (inactive)"},
      {"measurement": "GI50", "setting": "TK-10", "value": "> 100 µM (inactive)"},
      {"measurement": "GI50", "setting": "U-251", "value": "> 100 µM (inactive)"},
      {"measurement": "GI50", "setting": "UACC-257", "value": "> 100 µM (inactive)"},
      {"measurement": "GI50", "setting": "UACC-62", "value": "> 100 µM (inactive)"},
      {"measurement": "GI50", "setting": "UO-31", "value": "48.6 µM (inactive)"}
    ]}
  ]
}
